For 21 molecules, IC50 results are on record in patent publication US5063208A, “Peptidyl aminodiol renin inhibitors” (Abbott Laboratories, priority 1990, dated 1991).

In the assay the target is T1, human renal renin (Homo sapiens, UniProt P00797).
T1 construct: human renal renin, free from acid proteolytic activity; from tissue
T1 sequence (P00797 67-406): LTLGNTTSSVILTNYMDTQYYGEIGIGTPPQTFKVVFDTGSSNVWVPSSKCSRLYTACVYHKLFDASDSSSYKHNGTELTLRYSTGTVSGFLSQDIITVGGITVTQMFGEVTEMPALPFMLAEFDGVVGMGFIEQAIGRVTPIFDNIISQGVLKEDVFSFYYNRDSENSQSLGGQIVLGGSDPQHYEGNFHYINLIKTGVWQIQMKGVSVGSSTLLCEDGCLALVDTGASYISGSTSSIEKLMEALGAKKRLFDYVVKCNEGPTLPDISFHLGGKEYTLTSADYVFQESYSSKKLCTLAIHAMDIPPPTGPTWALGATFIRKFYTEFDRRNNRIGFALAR
In words: Inhibition of human renal renin in vitro (angiotensin I formed measured by radioimmunoassay). It counts as biochemical. To be noted: human renal renin free from acid proteolytic activity, renin substrate human angiotensinogen, 37 degrees C, pH 6.0; read-out: IC50 (molar concentration required to cause 50% inhibition). On the procedure: The compounds of the invention are also useful for treating congestive heart failure in a mammal. […] At the end of the incubation, the amount of angiotensin I formed is measured by radioimmunoassay and the molar concentration required to cause 50% inhibition, expressed as the IC50, is calculated.
For `CC(C)C[C@H](O)[C@H](O)[C@H](CC1CCCCC1)NC(=O)[C@H](Cc1cscn1)NC(=O)[C@@H](CC(=O)N(C)CCN1CCOCC1)Cc1ccccc1` [Example 96, (2R)-2-Benzyl-3-[(2-morpholin-4-ylethyl)methylaminocarbonyl]propionyl-L-(4-thiazolyl)Ala Amide of (2S,3R,4S)-2-Amino-1-cyclohexyl-3,4-dihydroxy-6-methylheptane], the IC50 came out at 0.4 nM.
`CC(C)C[C@H](O)[C@H](O)[C@H](CC1CCCCC1)NC(=O)[C@H](Cn1cccn1)NC(=O)[C@@H](CC(=O)N(C)CCn1cccn1)Cc1ccccc1` [Example 142, (2R)-2-Benzyl-3-[(2-pyrazol-1-ylethyl)methylaminocarbonyl]propionyl-L-(1-pyrazolyl)Ala Amide of (2S,3R,4S)-2-Amino-1-cyclohexyl-3,4-dihydroxy-6-methylheptane]: the IC50 came to 0.19 nM.
Consider `CC(C)C[C@H](O)[C@H](O)[C@H](CC1CCCCC1)NC(=O)[C@H](Cn1ccnc1)NC(=O)[C@@H](CC(=O)N(C)CCn1cccn1)Cc1ccccc1` [Example 107, (2R)-2-Benzyl-3-[(2-pyrazol-1-ylethyl)methylaminocarbonyl]propionyl-L-(1-imidazolyl)Ala Amide of (2S,3R,4S)-2-Amino-1-cyclohexyl-3,4-dihydroxy-6-methylheptane], for which the IC50 came out at 0.89 nM.
In the case of `CC(C)C[C@H](O)[C@H](O)[C@H](CC1CCCCC1)NC(=O)[C@H](Cc1cscn1)NC(=O)[C@H](Cc1ccccc1)Cc1csc(N(C)C)n1` [Example 104, (2R)-2-Benzyl-3-(2-dimethylaminothiazol-4-yl)propionyl-L-(4-thiazolyl)Ala Amide of (2S,3R,4S)-2-Amino-1-cyclohexyl-3,4-dihydroxy-6-methylheptane], the IC50 was determined as 0.43 nM.
Consider `CC(C)C[C@H](O)[C@H](O)[C@H](CC1CCCCC1)NC(=O)[C@H](Cc1cscn1)NC(=O)[C@@H](CC(=O)N(C)CCN1CCN(C)CC1)Cc1ccccc1` [Example 116, (2R)-2-Benzyl-3-[2-(4-methyloioerazin-1-ylethyl)methylaminocarbonyl]propionyl-L-(4-thiazolyl) Ala Amide of (2S,3R,4S)-2-Amino-1-cyclohexyl-3,4-dihydroxy-6-methylheptane], for which the IC50 amounted to 0.35 nM.
On to `CC(C)C[C@H](NC(=O)[C@H](Cc1cscn1)NC(=O)[C@@H](CC(=O)N(C)CCn1cccn1)Cc1ccccc1)[C@@H](O)[C@@H](O)CC(C)C` [Example 111, (2R)-2-Benzyl-3-[(2-pyrazol-1-ylethyl)methylaminocarbonyl]propionyl-L-(4-Thiazolyl)Ala Amide of (4S,5R,6S)-6-Amino-4,5-dihydroxy-2,8-dimethylnonane], for which the IC50 is 0.49 nM.
Regarding `CC(C)C[C@H](O)[C@H](O)[C@H](CC1CCCCC1)NC(=O)C(Cn1cccn1)N(C)C(=O)[C@@H](CC(=O)N(C)CCc1ccccn1)Cc1ccccc1` (stereo partly drawn) [Example 134, (2R)-2-Benzyl-3-[(2-pyridin-2-ylethyl)methylaminocarbonyl]propionyl-(N-α-methyl)-(1-pyrazolyl) alanine Amide of (2S,3R,4S)-2-Amino-1-cyclohexyl-3,4-dihydroxy-6-methylheptane], the IC50 was 1.3 nM.
Take `CCCC[C@H](NC(=O)C(Cc1ccccc1)CS(=O)(=O)C1CN(C)C1)C(=O)N[C@@H](CC1CCCCC1)[C@@H](O)[C@@H](O)CC(C)C` (mixture of isomers) [Example 110, (2RS)-2-Benzyl-3-(1-methylazetidin-3-ylsulfonyl)propionyl-Nle Amide of (2S,3R,4S)-2-Amino-1-cyclohexyl-3,4-dihydroxy-6-methylheptane]: the IC50 was 2.3 nM.
On to `CC(C)C[C@H](O)[C@H](O)[C@H](CC1CCCCC1)NC(=O)[C@H](Cc1cscn1)NC(=O)[C@H](Cc1ccccc1)N1CCOCC1` [Example 113, (2S)-2-(4-Morpholinyl)-3-phenylpropionyl-L-(4-thiazolyl)Ala Amide of (2S,3R,4S)-2-Amino-1-cyclohexyl-3,4-dihydroxy-6-methylheptane], for which the IC50 was 0.15 nM.
`CC(C)C[C@H](O)[C@H](O)[C@H](CC1CCCCC1)NC(=O)[C@H](Cc1cscn1)NC(=O)[C@@H](CC(=O)N(C)CCc1c[nH]c2ccccc12)Cc1ccccc1` [Example 152, (2R)-2-Benzyl-3-[(2-indol-3-ylethyl)methylaminocarbonyl]propionyl-L-(4-thiazolyl)Ala Amide of (2S,3R,4S)-2-Amino-1-cyclohexyl-3,4-dihydroxy-6-methylheptane]: the IC50 worked out at 0.59 nM.
Turning to `CC(C)C[C@H](O)[C@H](O)[C@H](CC1CCCCC1)NC(=O)[C@H](Cc1cscn1)NC(=O)[C@@H](CC(=O)CCCc1ccncc1)Cc1ccccc1` [Example 154, (2R)-2-Benzyl-3-[(2-pyridin-4-ylethyl)methylcarbonyl]propionyl-L-(4-thiazolyl)Ala Amide of (2S,3R,4S)-2-Amino-1-cyclohexyl-3,4-dihydroxy-6-methylheptane], the IC50 is 0.21 nM.
The figure for `CC(C)C[C@H](O)[C@H](O)[C@H](CC1CCCCC1)NC(=O)[C@H](Cc1cscn1)NC(=O)[C@@H](CC(=O)CS(=O)(=O)C(C)(C)C)Cc1ccccc1` [Example 98, (2R)-2-Benzyl-5-tert-butylsulfonyl-4-oxopentanoyl-L-(4-thiazolyl)Ala Amide of (2S,3R,4S)-2-Amino-1-cyclohexyl-3,4-dihydroxy-6-methylheptane] is 0.45 nM.
In the case of `CC(C)C[C@H](O)[C@H](O)[C@H](CC1CCCCC1)NC(=O)[C@H](Cc1cscn1)NC(=O)[C@@H](CC(=O)N(C)CCn1cccn1)Cc1ccccc1` [Example 118, (2R)-2-Benzyl-3-[(2-pyrazol-1-ylethyl)methylaminocarbonyl]propionyl-L-(4-thiazolyl)Ala Amide of (2S,3R,4S)-2-Amino-1-cyclohexyl-3,4-dihydroxy-6-methylheptane], the IC50 was determined as 0.3 nM.
On to `CCCC[C@H](NC(=O)[C@@H](CC(=O)N(C)CCn1ccnc1)Cc1ccccc1)C(=O)N[C@@H](CC1CCCCC1)[C@@H](O)[C@@H](O)CC(C)C` [Example 123, (2R)-2-Benzyl-3-[(2-imidazol-1-ylethyl)methylaminocarbonyl]propionyl-Nle Amide of (2S,3R,4S)-2-Amino-1-cyclohexyl-3,4-dihydroxy-6-methylheptane], for which the IC50 was found to be 0.26 nM.
Regarding `CCCC[C@H](NC(=O)[C@@H](CC(=O)N(C)CCc1ccccn1)Cc1ccccc1)C(=O)N[C@@H](CC1CCCCC1)[C@@H](O)[C@@H](O)CC(C)C` [Example 122, (2R)-2-Benzyl-3-[(2-pyridin-2-ylethyl)methylaminocarbonyl]propionyl-Nle Amide of (2S,3R,4S)-2-Amino-1-cyclohexyl-3,4-dihydroxy-6-methylheptane], the IC50 came to 0.43 nM.
For the molecule `CC(C)C[C@H](O)[C@H](O)[C@H](CC1CCCCC1)NC(=O)[C@H](Cc1cscn1)NC(=O)[C@@H](CC(=O)N(C)c1ccncc1)Cc1ccccc1` [Example 124, (2R)-2-Benzyl-3-[(N-pyridin-4-yl)methylaminocarbonyl]propionyl-L-(4-thiazolyl)Ala Amide of (2S,3R,4S)-2-Amino-1-cyclohexyl-3,4-dihydroxy-6-methylheptane], the IC50 stood at 0.34 nM.
The figure for `CON(C)C[C@@H](Cc1ccccc1)C(=O)N[C@@H](Cc1cscn1)C(=O)N[C@@H](CC1CCCCC1)[C@@H](O)[C@@H](O)CC(C)C` [Example 100, (2R)-2-Benzyl-3-(N-methoxy-N-methylamino)propionyl-L-(4-thiazolyl)Ala Amide of (2S,3R,4S)-2-Amino-1-cyclohexyl-3,4-dihydroxy-6-methylheptane] is 1.8 nM; for `CC(C)C[C@H](O)[C@H](O)[C@H](CC1CCCCC1)NC(=O)[C@H](Cc1cscn1)NC(=O)[C@@H](CC(=O)C[S+]([O-])C(C)(C)C)Cc1ccccc1` (stereo partly drawn) [Example 99, (2R)-2-Benzyl-5-tert-butylsulfinyl-4-oxopentanoyl-L-(4-thiazolyl)Ala Amide of (2S,3R,4S)-2-Amino-1-cyclohexyl-3,4-dihydroxy-6-methylheptane] it is 0.91 nM; for `CC(C)C[C@H](O)[C@H](O)[C@H](CC1CCCCC1)NC(=O)[C@H](Cn1cccn1)NC(=O)[C@@H](CC(=O)N(C)CCc1ccccn1)Cc1ccccc1` [Example 119, (2R)-2-Benzyl-3-[(2-pyridin-2-ylethyl)methylaminocarbonyl]propionyl-L-(1-pyrazolyl)Ala Amide of (2S,3R,4S)-2-Amino-1-cyclohexyl-3,4-dihydroxy-6-methylheptane] it is 0.33 nM.
Take `CCCC[C@H](NC(=O)[C@@H](CC(=O)N(C)CCn1cccn1)Cc1ccccc1)C(=O)N[C@@H](CC1CCCCC1)[C@@H](O)[C@@H](O)CC(C)C` [Example 121, (2R)-2-Benzyl-3-[(2-pyrazol-1-ylethyl)methylaminocarbonyl]propionyl-Nle Amide of (2S,3R,4S)-2-Amino-1-cyclohexyl-3,4-dihydroxy-6-methylheptane]: the IC50 stood at 0.33 nM.
Regarding `CC(C)C[C@H](O)[C@H](O)[C@H](CC1CCCCC1)NC(=O)[C@H](Cn1cccn1)NC(=O)[C@@H](CC(=O)N(C)CCn1ccnc1)Cc1ccccc1` [Example 120, (2R)-2-Benzyl-3-[(2-imidazol-1-ylethyl)methylaminocarbonyl]propionyl-L-(1-pyrazolyl)Ala Amide of (2S,3R,4S)-2-Amino-1-cyclohexyl-3,4-dihydroxy-6-methylheptane], the IC50 amounted to 0.22 nM.
